≈ marks a conversion by molar mass, not a printed value. Calls of active or inactive are those of the source. The rule behind the calls is not given here.
Key:
[1] = tested on: Jurkat; experiment: Cytotoxicity against human Jurkat T cells after 36 hrs by MTT assay
[2] = cells; conditions: Homo sapiens, T-cell, 36 h, read-out: Activity
Description: Cytotoxicity against human PHA-stimulated T cells assessed as cell viability at 15 ug/ml after 36 hrs by MTT assay relative to control

[3] = tested on: Jurkat; experiment: Induction of apoptosis in human Jurkat T cells overexpressing Neo assessed as cell viability at 30 ug/ml after 36 hrs by MTT assay; conditions: read-out: Activity
[4] = Cytotoxicity against human normal peripheral T cells after 36 hrs by MTT assay; conditions: T-cell
[5] = tested on: Jurkat; experiment: Induction of apoptosis in human Jurkat T cells overexpressing Bcl2 assessed as cell viability at 30 ug/ml after 36 hrs by MTT assay; conditions: read-out: Activity
[6] = tested on: Jurkat; experiment: Cytotoxicity against human Jurkat T cells assessed as cell viability at 60 ug/ml after 36 hrs by MTT assay relative to control; conditions: read-out: Activity
[7] = Cytotoxicity against human PHA-stimulated T cells assessed as cell viability at 60 ug/ml after 36 hrs by MTT assay relative to control; conditions: read-out: Activity
[8] = tested on: Jurkat; experiment: cells; conditions: Homo sapiens, 36 h, read-out: Activity
Description: Induction of apoptosis in human Jurkat T cells overexpressing Bcl2 assessed as cell viability at 15 ug/ml after 36 hrs by MTT assay

[9] = tested on: Jurkat; experiment: cells; conditions: Homo sapiens, 36 h, read-out: Activity; remark: listed apart in the source
Description: Induction of apoptosis in human Jurkat T cells overexpressing Neo assessed as cell viability at 15 ug/ml after 36 hrs by MTT assay

[10] = tested on: Jurkat; experiment: Cytotoxicity against human Jurkat T cells assessed as cell viability at 30 ug/ml after 36 hrs by MTT assay relative to control; conditions: read-out: Activity
[11] = tested on: Jurkat; experiment: cells; conditions: Homo sapiens, 36 h, read-out: Activity; remark: listed apart in the source
Description: Cytotoxicity against human Jurkat T cells assessed as cell viability at 15 ug/ml after 36 hrs by MTT assay relative to control

[12] = Cytotoxicity against human PHA-stimulated T cells assessed as cell viability at 30 ug/ml after 36 hrs by MTT assay relative to control; conditions: read-out: Activity
[13] = tested on: Jurkat; experiment: cells; conditions: Homo sapiens, 36 h, read-out: Activity; remark: listed apart in the source
Description: Induction of apoptosis in human Jurkat T cells overexpressing Neo assessed as cell viability at 7.5 ug/ml after 36 hrs by MTT assay

[14] = Cytotoxicity against human normal peripheral T cells assessed as cell viability at 60 ug/ml after 36 hrs by MTT assay relative to control
[15] = tested on: Jurkat; experiment: cells; conditions: Homo sapiens, 36 h, read-out: Activity; remark: listed apart in the source
Description: Induction of apoptosis in human Jurkat T cells overexpressing Bcl2 assessed as cell viability at 7.5 ug/ml after 36 hrs by MTT assay

[16] = Cytotoxicity against human PHA-stimulated T cells after 36 hrs by MTT assay; conditions: T-cell
[17] = tested on: Jurkat; experiment: Induction of apoptosis in human Jurkat T cells overexpressing Neo assessed as cellular protrusions after 36 hrs by light microscopy; format: functional, cell-based
[18] = tested on: Jurkat; experiment: Induction of microtubule damage in human Jurkat T cells overexpressing Bcl2 after 36 hrs by immunostaining method; format: cell-based
[19] = tested on: Jurkat; experiment: Induction of microtubule damage in human Jurkat T cells overexpressing Neo after 36 hrs by immunostaining method; format: cell-based
[20] = tested on: Jurkat; experiment: Induction of apoptosis in human Jurkat T cells overexpressing Bcl2 after 36 hrs by flow cytometry; format: functional, cell-based
[21] = tested on: Jurkat; experiment: Induction of apoptosis in human Jurkat T cells overexpressing Bcl2 assessed as cellular protrusions after 36 hrs by light microscopy; format: functional, cell-based
[22] = tested on: Jurkat; experiment: Induction of cell cycle arrest in human Jurkat T cells overexpressing Bcl2 assessed as G2/M phase cells after 36 hrs by flow cytometry (reference value: 2.4%); format: functional
[23] = tested on: Jurkat; experiment: Induction of cell cycle arrest in human Jurkat T cells overexpressing Neo assessed as G2/M phase cells after 36 hrs by flow cytometry (reference value: 4.7%); format: functional
[24] = tested on: Jurkat; experiment: Induction of apoptosis in human Jurkat T cells overexpressing Neo after 36 hrs by flow cytometry; format: functional, cell-based

Compound | Activity [17] | Activity [18] | Activity [19] | Activity [20] | Activity [21] | Activity [22] | Activity [23] | Activity [24] | also measured
CCOC(C)(C)/C=C1/C=C(C(=O)O)C(O)CO1 (configuration not stated) [ARUNCIN B] | – | – | – | – | – | – | – | – | IC50 [1]: 22 µg/mL (≈ 90.8 µM); viability at 15 µg/mL [2]: 85.9%; viability at 30 µg/mL [3]: 44.9%; IC50 [4]: > 60 µg/mL; viability at 30 µg/mL [5]: 61.2%; viability at 60 µg/mL [6]: 24.5%; viability at 60 µg/mL [7]: 25%; viability at 15 µg/mL [8]: 71.5%; viability at 15 µg/mL [9]: 57.4%; viability at 30 µg/mL [10]: 36.1%; viability at 15 µg/mL [11]: 67.7%; viability at 30 µg/mL [12]: 68.5%; viability at 7.5 µg/mL [13]: 82%; viability at 36 h, 60 ug/ml [14]: 63.8%; viability at 7.5 µg/mL [15]: 81.5%; IC50 [16]: 49 µg/mL (≈ 202 µM)
COC(=O)Nc1nc2cc(C(=O)c3cccs3)ccc2[nH]1 [NOCODAZOLE] | Active | Active | Active | inactive | Active | 5.6% | 40.3% | Active | –
O=c1c(-c2ccc(O)cc2)coc2cc(O)cc(O)c12 [GENISTEIN] | inactive | inactive | inactive | inactive | inactive | 6.7% | 35% | Active | –

Source: ChEMBL document CHEMBL2203108, “Induction of microtubule-damage, mitotic arrest, Bcl-2 phosphorylation, Bak activation, and mitochondria-dependent caspase cascade is involved in human Jurkat T-cell apoptosis by aruncin B from Aruncus dioicus var. kamtschaticus” (Bioorg Med Chem Lett, 2012)
